US20210290513A1, “COMPOSITION COMPRISING KAKKALIDE” (LG HOUSEHOLD & HEALTH CARE LTD., priority 2020, published 2021)

Assays:
Type in all cases: cell-based
[1] = test system: type I collagen synthesis in human-derived fibroblasts; assay: Type I collagen synthesis in human-derived fibroblasts (PICP EIA kit); conditions: for Increase rate (%) of collagen synthesis: relative to negative control; for Amount of type I collagen production: negative control 151.4
Procedure: A sample was added to a human-derived fibroblast culture medium to evaluate the effect of promoting type I collagen synthesis at the cellular level. The synthesized collagen was quantified using a Procollagen Type I C-Peptide Enzyme Immunoassay kit (PICP EIA kit). In order to measure the amount of collagen synthesis, a compound of Formula 1 was added to the fibroblast culture medium (Dulbecco's Modified Eagle Medium (DMEM)) so that the final concentration of compound of Formula 1 was 0.1 ppm, 1 ppm, or 10 ppm in each medium, and Genistein was also added to the fibroblast culture medium (Dulbecco's Modified Eagle Medium (DMEM)) so that final concentration of Genistein was 0.1 ppm, 1 ppm, or 10 ppm. After culturing for 48 hours, and then the culture medium was taken, and, by using the PICP EIA kit, the degree of type I collagen synthesis at each concentration was measured at 450 nm using a spectrophotometer. In order to compare the effect, the culture medium of fibroblasts without sample treatment was used as a negative control, and 10 ng/ml TGF-β was used as a positive control, and the degrees of collagen synthesis therein were measured in the same manner as for testing an added sample. A rate of increase in collagen synthesis was calculated as a ratio of the amount of collagen production relative to that of the negative control, and the results are shown in Table 2. The experiment was performed three times for each sample, and averages of measurements were obtained.

AQP3 = AQP3 mRNA expression in human keratinocytes (real-time quantitative PCR); conditions: HaCaT, negative control normalized to 1.0
Procedure: (§1) Human keratinocytes (HaCaT) were dispensed into a 6-well cell culture plate at 2×10^5 cells/well and cultured for 24 hours in a DMEM medium containing 10% fetal bovine serum (FBS). The medium was replaced with a DMEM medium without 10% FBS and calcium (Ca^2+), and the cultured cells were treated with the compound of Chemical Formula 1, which had been diluted with a medium, for 24 hours. After the 24 hours had passed, the cells were recovered and then washed with a cold phosphate buffer solution (PBS), and total RNA was extracted using an RNeasy mini kit (Qiagen, Germany). A reverse transcription reaction was performed using RNA and a cDNA Synthesis kit (PhileKorea, Korea). The synthesized cDNA was diluted with water after being quantified, and the same amount thereof was used for all reactions. HAS2, HAS3, and AQP3 primers from a TaqMan® Universal Master Mix II and TaqMan® Gene Expression Assays (Thermo Fisher, USA) were used. Real-time quantitative polymerase chain reaction (PCR) was carried out using a StepOnePlus® Real-time PCR System (Applied Biosystems, USA). The experimental results were obtained through calculation performed by a ΔΔCt method based on a housekeeping gene glyceraldehyde-3-phosphate dehydrogenase (GAPDH). The levels of HAS2, HAS3, and AQP3 gene expression in each sample were quantified based on the mRNA expression level (normalized to 1.0) of the negative control to which the sample was not added, and the results are shown in Table 3. As a positive control, 10 ng/ml EGF recombinant human protein (Life Technologies, USA) was used.

HAS2 = HAS2 mRNA expression in human keratinocytes (real-time quantitative PCR); conditions: HaCaT, negative control normalized to 1.0
Procedure: as §1

HAS3 = HAS3 mRNA expression in human keratinocytes (real-time quantitative PCR); conditions: HaCaT, negative control normalized to 1.0
Procedure: as §1

A. niger = assay: Minimum inhibitory concentration, serial dilution method; conditions: PDB medium, about 10^6/well
Procedure: (§2) This experiment was carried out by a serial dilution method and a method of measuring a minimum inhibitory concentration (MIC), using an MHB2 medium (for bacteria) or a PDB medium (for fungi). The bacteria or fungi were inoculated at about 10^6/well.

E. coli = assay: as above; conditions: MHB2 medium, about 10^6/well
Procedure: as §2

C. albicans = assay: as above; conditions: PDB medium, about 10^6/well
Procedure: as §2

Pityrosporum ovale = assay: as above; conditions: about 10^6/well
Procedure: as §2

P. aeruginosa = assay: as above; conditions: MHB2 medium, about 10^6/well
Procedure: as §2

S. aureus = assay: as above; conditions: MHB2 medium, about 10^6/well
Procedure: as §2

[2] = test system: Wnt/β-catenin signaling pathway; assay: Wnt/β-catenin signaling pathway activation, TOPflash luciferase reporter in human dermal papilla cells; conditions: untreated control = 100
Procedure: The effect of the compound of Chemical Formula 1 on the activation of the Wnt/β-catenin signaling pathway was investigated using TOPflash (T-cell factor reporter plasmid) Kit (Millipore, USA). Human dermal papilla cells were inoculated into a 24-well plate at 2×10^5/well, cultured for 24 hours, treated with the compound of Chemical Formula 1 so that the concentration was 10 μg/ml, and then additionally cultured for 15 hours, and firefly luciferase activity was subsequently measured using a dual luciferase assay kit (Promega, USA).
In order to accurately measure the luciferase activity, the experiment was performed three times for each sample, an increase rate (%) was calculated as a ratio of activity relative to that of a control was calculated, and the results are shown in Table 5. The negative control was an untreated group. As a positive control, 6-bromoindirubin-3′-oxime (BIO) was used, and BIO is a material known to inhibit GSK-3 in the Wnt signaling system.

dermal papilla cells = assay: Dermal papilla cell proliferation (CCK-8); conditions: 100 ppm, CCK-8 on day 5, Control (DMEM) = 1.00
Procedure: This experiment was performed using the following media 1) to 3):
1) DMEM (10% FBS, 1% P/S)
2) Depletion medium: 5% charcoal-stripped, FBS-containing, phenol red-free DMEM
3) Serum-free (SF) medium: DMEM (1% P/S).
On days 0 to 5, the following various experiments were performed to confirm a dermal papilla cell proliferation effect.
Day 0: At 10 a.m., cells were seeded (5,000 cells/well)
Day 1: At 10 a.m., after changing the depletion medium, cells were cultured for 24 hours.
Day 2: At 10 a.m., CCK-8 was measured (average initial value: 0.586) before the cells were treated with a sample, and subsequently, cells were treated with a sample.

B-16 mouse melanoma cell = assay: Total melanin amount in mouse melanoma cell culture (brightening effect); conditions: B16, 72 h, B-16 melanoma cells cultured three days, vs negative control (DMSO), read-out: Inhibition rate (%) of melanin production
Procedure: In order to evaluate a brightening effect according to inhibition of melanogenesis, an extract was added to a mouse melanoma cell (B-16 mouse melanoma cell) culture, and the total amount of melanin was measured according to a method described in Lotan R. et al. (Cancer Res. 40:3345-3350, 1980). For this experiment, toxicity with respect to the mouse melanoma cells was first evaluated, and the brightening effect was evaluated at a concentration not inducing toxicity. Dimethyl sulfoxide (DMSO) was used as a negative control, and arbutin was used as a positive control.
Specifically, A compound of Formula 1 was added to a medium of each sample so that the final concentration of the compound of Formula 1 is 1 ppm, 10 ppm, 100 ppm, or 500 ppm, and Daidzein was also added to the medium so that the final concentration of Daidzein is 1 ppm, 10 ppm, 100 ppm, or 500 ppm. Arbutin was added to the medium so that the final concentration was 100 ppm. In each of the mediums, melanoma cells were cultured for three days. Subsequently, the cells were treated with trypsin, detached from the culture plate, and centrifuged, and then melanin was extracted. The detached cells were boiled for 10 minutes by adding 1 ml of a sodium hydroxide solution (1 N concentration) so that melanin was dissolved, and by measuring an absorbance at 400 nm using a spectrophotometer, the amount of melanin production was measured.
The amount of melanin was measured by a method of indicating absorbance per unit cell count (1×10^6 cells), The amount of melanin production in each experimental group with respect to the negative control was calculated as a relative value, and the value obtained by subtracting the amount of melanin production in each experimental group from 100% of the melanin production amount in the negative control group was expressed as the inhibition rate (%). The experiment was performed three times for each sample, and averages of measurements were obtained.

## TGF-β
[1]; 10 ng/ml, positive control
  Increase rate (%) of collagen synthesis: 13.84%
  Amount of type I collagen production: 172.35 ng/mL

## EGF: EGF recombinant human protein (Life Technologies, USA), positive control
AQP3; 10 ng/ml, positive control
  Increased AQP3 mRNA amount: 1.09
HAS2; 10 ng/ml, positive control
  Increased HAS2 mRNA amount: 16.42
HAS3; 10 ng/ml, positive control
  Increased HAS3 mRNA amount: 5.24

## zinc pyrithione
A. niger
  Minimum inhibitory concentration (%) A. niger: 0.02%
E. coli
  Minimum inhibitory concentration (%) E. coli: 0.002%
C. albicans
  Minimum inhibitory concentration (%) C. albicans: 0.02%
Pityrosporum ovale
  Minimum inhibitory concentration (%) Pityrosporum ovale: 0.0002%
P. aeruginosa
  Minimum inhibitory concentration (%) P. aeruginosa: 0.002%
S. aureus
  Minimum inhibitory concentration (%) S. aureus: 0.001%

## COc1ccc(-c2coc3cc(O[C@@H]4O[C@H](CO[C@@H]5OC[C@@H](O)[C@H](O)[C@H]5O)[C@@H](O)[C@H](O)[C@H]4O)c(OC)c(O)c3c2=O)cc1 [Chemical Formula 1, kakkalide]
A. niger
  Minimum inhibitory concentration (%) A. niger: 0.1%
E. coli
  Minimum inhibitory concentration (%) E. coli: 0.05%
C. albicans
  Minimum inhibitory concentration (%) C. albicans: 0.05%
Pityrosporum ovale
  Minimum inhibitory concentration (%) Pityrosporum ovale: 0.0003%
P. aeruginosa
  Minimum inhibitory concentration (%) P. aeruginosa: 0.05%
S. aureus
  Minimum inhibitory concentration (%) S. aureus: 0.01%
AQP3; 10 ppm, 24 hours
  Increased AQP3 mRNA amount: 1.75
AQP3; 100 ppm, 24 hours
  Increased AQP3 mRNA amount: 4.17
[2]; 10 μg/ml, 15 hours
  Increase rate (%) of luciferase activity: 160%
Dermal papilla cells
  Average (ratio) dermal papilla cell proliferation: 1.34
HAS2; 10 ppm, 24 hours
  Increased HAS2 mRNA amount: 2.28
HAS2; 100 ppm, 24 hours
  Increased HAS2 mRNA amount: 6.64
HAS3; 10 ppm, 24 hours
  Increased HAS3 mRNA amount: 3.97
HAS3; 100 ppm, 24 hours
  Increased HAS3 mRNA amount: 5.23
[1]; 0.1 ppm, 48 hours
  Increase rate (%) of collagen synthesis: 4.19%
  Amount of type I collagen production: 157.74 ng/mL
[1]; 1 ppm, 48 hours
  Increase rate (%) of collagen synthesis: 12.56%
  Amount of type I collagen production: 170.41 ng/mL
[1]; 10 ppm, 48 hours
  Increase rate (%) of collagen synthesis: 16.07%
  Amount of type I collagen production: 175.72 ng/mL
B-16 mouse melanoma cell
  inhibition at 1 ppm: 35.3%
  inhibition at 10 ppm: 48%
  inhibition at 100 ppm: 57.6%
  inhibition at 500 ppm: 68.4%

## O=c1c(-c2ccc(O)cc2)coc2cc(O)ccc12 [Daidzein]
B-16 mouse melanoma cell
  inhibition at 1 ppm: 18.7%
  inhibition at 10 ppm: 16.4%
  inhibition at 100 ppm: 20.8%
  inhibition at 500 ppm: 30.2%

## O=C1Nc2cc(Br)ccc2/C1=C1/Nc2ccccc2/C1=N\O [BIO, 6-bromoindirubin-3′-oxime]
[2]; 1 μM, positive control
  Increase rate (%) of luciferase activity: 153%

## O=c1c(-c2ccc(O)cc2)coc2cc(O)cc(O)c12 [Genistein]
A. niger
  Minimum inhibitory concentration (%) A. niger: 0.2%
E. coli
  Minimum inhibitory concentration (%) E. coli: 0.1%
C. albicans
  Minimum inhibitory concentration (%) C. albicans: 0.08%
Pityrosporum ovale
  Minimum inhibitory concentration (%) Pityrosporum ovale: 0.0005%
P. aeruginosa
  Minimum inhibitory concentration (%) P. aeruginosa: 0.07%
S. aureus
  Minimum inhibitory concentration (%) S. aureus: 0.03%
AQP3; 10 ppm, 24 hours
  Increased AQP3 mRNA amount: 1.09
AQP3; 100 ppm, 24 hours
  Increased AQP3 mRNA amount: 2.47
[2]; 10 μg/ml, 15 hours
  Increase rate (%) of luciferase activity: 140%
Dermal papilla cells
  Average (ratio) dermal papilla cell proliferation: 1.10
HAS2; 10 ppm, 24 hours
  Increased HAS2 mRNA amount: 1.06
HAS2; 100 ppm, 24 hours
  Increased HAS2 mRNA amount: 2.74
HAS3; 10 ppm, 24 hours
  Increased HAS3 mRNA amount: 2.86
HAS3; 100 ppm, 24 hours
  Increased HAS3 mRNA amount: 3.34
[1]; 0.1 ppm, 48 hours
  Increase rate (%) of collagen synthesis: 2.53%
  Amount of type I collagen production: 155.24 ng/mL
[1]; 1 ppm, 48 hours
  Increase rate (%) of collagen synthesis: 4.85%
  Amount of type I collagen production: 158.75 ng/mL
[1]; 10 ppm, 48 hours
  Increase rate (%) of collagen synthesis: 8.59%
  Amount of type I collagen production: 165.93 ng/mL

## OC[C@H]1O[C@@H](Oc2ccc(O)cc2)[C@H](O)[C@@H](O)[C@@H]1O [Arbutin, arbutin]
B-16 mouse melanoma cell
  inhibition at 100 ppm: 56%
